Data reported in patent US20210212937A1, “GLUCONO DELTA-LACTONE FOR TREATMENT OF VAGINAL FUNGAL INFECTIONS” (Gedea Biotech AB, priority 2016, published 2021).

How the values were obtained:
C. albicans [1] = test: Microfluidics study of biofilm development (cell morphology); format: cell-based, Candida albicans; details: 5 h, 1 h hydrolysate of GDA pellet diluted 50 times
Experimental: To monitor the C. albicans cell morphology we studied the biofilm development also using microscopy and microfluidics. After the yeast cells were inoculated, hyphae started to form within first hour of incubation in the biofilm medium (YNB supplemented with 100 mM proline and 0.2% glucose, pH7.0). […] A sample was taken after 1 h and diluted 50 times with biofilm medium and added to C. albicans.

Candida sp. = test: Viability on medium with calcofluor white versus osmotic stabilizer (cell wall damage); format: cell-based; details: compared to medium with 0.5M sucrose and to untreated cells
Candida glabrata = test: Biofilm formation in a model of in vivo conditions using GDA pellet; format: cell-based; details: C. glabrata; GDA released from pellet (2.5 g) in pH 3.71 buffer, samples 1-24 h, diluted 50 times
Experimental: (§1) Yeast strains were grown at 37° C. in complete medium YPD (0.5% (weight/volume) yeast extract, 1% (weight/volume) peptone, 2% (weight/volume) glucose) or minimal medium consisting of YNB (yeast nitrogen base without amino acids and ammonium sulphate, FORMEDIUM™, CYN0505) supplemented with 0.5% (weight/volume) ammonium sulphate, 0.2% (weight/volume) glucose and 100 mM L-proline. If needed 2% (weight/volume) agar was used to solidify media. The liquid minimal medium (YNB (yeast nitrogen base without amino acids and ammonium sulphate, FORMEDIUM™, CYN0505) supplemented with 0.5% ammonium sulphate, 0.2% (weight/volume) glucose and 100 mM L-proline) was used for biofilm assay (biofilm medium).
(§2) Biofilm was measured in liquid culture as described [K. Scherz et al., G3 (Bethesda), 2014, 4, 1671-1680. I. Serrano-Fujarte et al. Biomed Res Int. 2015; 2015:783639] with some modifications. Prior the biofilm assay, yeast cultures were grown in liquid YPD medium for 24 hours until stationary phase cells were then pelleted by centrifugation (1699×g), washed with sterile water and the cells were further inoculated into test biofilm medium (YNB (yeast nitrogen base without amino acids and ammonium sulphate) supplemented with 0.5% ammonium sulphate, 0.2% glucose and 100 mM L-proline pH7.0) at final concentration of 0.2 OD600/ml and incubated in 96-well flat-bottom polystyrene microtiter plates (Sigma Aldrich, Corning® Costar® culture plates, CLS3596-50EA) for 72 hours at 37° C. thermostat. At defined time points crystal violet (HT901-8FOZ; Sigma Aldrich) was added to the media at the final concentration 0.05% In addition, total biomass was measured. […] Total biomass and crystal violet biofilm staining measurements were performed at OD560 with FLUOstar OPTIMA plate reader, BMG LABTECH. […]
(§3) Samples (4 mL) were taken at fixed time points (1, 2, 3, 4, 5, 6 and 24 h) and new buffer solution (4 mL) was added. The samples were diluted 50 times with biofilm medium (vide supra) and the amount of biofilm formation was measured after 24 h as described above. […]

Candida albicans [2] = test: as above; format: cell-based; details: C. albicans
Experimental: as §1, §2, §3

C. albicans [3] = test: Viability of mature biofilm, XTT staining; format: cell-based, Candida albicans
Experimental: (§4) XXT is a colorimetric assay for quantification of cellular viability, and cytotoxicity. The assay is based on the cleavage of the tetrazolium salt XTT, a conversion that only occurs in viable cells. […] Then the cells were washed 2 times with PBS, after which the XTT reaction mixture was added. After 30 min the optical density measured at 485 nm.

Candida albicans [4] = test: Biofilm formation of Candida albicans at different pH (crystal violet); format: cell-based
Experimental: The biofilm was measured after 24 h and the staining was performed with crystal violet.
as §1
Biofilm was measured in liquid culture as described [K. Scherz et al., G3 (Bethesda), 2014, 4, 1671-1680. I. Serrano-Fujarte et al. Biomed Res Int. 2015; 2015:783639] with some modifications. […] At defined time points crystal violet (HT901-8FOZ; Sigma Aldrich) was added to the media at the final concentration 0.05% In addition, total biomass was measured. […] Total biomass and crystal violet biofilm staining measurements were performed at OD560 with FLUOstar OPTIMA plate reader, BMG LABTECH. […]

C. glabrata [5] = test: Cell survival of mature biofilm, serial dilution plating on YPD; format: cell-based, Candida glabrata
Experimental: (§5) The plated cells were incubated for 24 h at 37° C. and visually analyzed. The cells from the mature biofilm treated with water were used as a control. […] At the concentrations of 0.2 and 0.5 g/ml after 5 h of incubation the cell viability was decreased by about 100 times for both C. albicans and C. glabrata.

C. glabrata [6] = test: Viability of mature biofilm, XTT staining; format: cell-based, Candida glabrata; details: 24 h of incubation
Experimental: as §4

C. albicans [7] = test: Cell survival of mature biofilm, serial dilution plating on YPD; format: cell-based, Candida albicans; details: 0.5 g/ml, 5 h, 37° C.
Experimental: as §5

Candida = test: Biofilm assay of hydroxylated carboxylic acids; format: cell-based
Text: Given the importance of formation of biofilm in vulvovaginal Candida infections, a biofilm assay was deemed appropriate to evaluate the effect of hydroxylated carboxylic acid in targeting vulvovaginal Candida infections. […] As biofilm formation is dependent on both pH and the occurrence of alternative carbohydrate sources, it was not surprising to learn that lactic acid provides some effect on the formation of biofilm. Further, also some other hydroxylated C2-C5 carboxylic acids provided similar effects. Their effect is deemed to be related to their acidifying effect, as the stronger acid provided somewhat stronger effects.
Whereas the effect of other hydroxylated carboxylic acids seemingly only is due to their acidity (lowering the pH hampers the formation of biofilm), the effect of polyhydroxylated C6 carboxylic acids, e.g. gluconic acid, on formation of biofilm is pronounced already at pH<7. Thus, it seems that the effect of polyhydroxylated C6 carboxylic acid, e.g. gluconic acid, on formation of biofilm not merely is related to its acidity, but the compound itself, or more precisely the related δ-lactone thereof, also provides an effect.

For `O=C1O[C@H](CO)[C@@H](O)[C@H](O)[C@H]1O` [GDA, glucono δ-lactone], the Cell morphology (C. albicans [1]) was “most treated cells were planctonic”, the “Viability on medium with calcofluor white” value (Candida sp.) was “lower viability” and the “Amount of biofilm formation” value (Candida glabrata) was “less pronounced”. For the same compound, the “Amount of biofilm formation” value (Candida albicans [2]; GDA released from pellet (2.5 g) in pH 3.71 buffer, samples 1-24 h, diluted 50 times) was “significantly reduces”, the “Duration of preventive effect of pellet” value (Candida albicans [2]; pellet 2.5 g in pH 3.71 buffer, 37° C.) was at least 24 h and the “Viability of mature biofilm (XTT, OD 485 nm)” value (from here on “Viability of mature biofilm”) (C. albicans [3]; 24 h of incubation) was “less pronounced”. For the same compound, the “Viability of mature biofilm” value (C. albicans [3]; 48 h) was “clearly seen”, the “pH up to which strong effect on biofilm formation is shown” value (Candida albicans [4]; C. albicans, 24 h) was “at least 6” and the “Effect on biofilm formation of C. albicans” value (Candida albicans [4]; minimal media pH 2.6-6.6, 24 h) was “strong effects”. The “Decrease of cell viability” value (C. glabrata [5]; C. glabrata mature biofilm, 0.5 g/ml, 5 h, 37° C.) was “about 100 times”, the “Sensitivity of mature biofilm compared with C. albicans” value (C. glabrata [5]; C. glabrata, plating after incubation with GDA) was “more sensitive” and the “Viability of mature biofilm” value (C. glabrata [6]) was “strong decrease in viability”. The “Decrease of cell viability” value (C. albicans [7]) was “about 100 times”.

For `O=C(O)[C@H](O)[C@@H](O)[C@H](O)[C@H](O)CO` [gluconic acid], the “pH at which effect on formation of biofilm is already pronounced” value (Candida) was under 7 and the “Decrease of formation of biofilm” value (Candida; compared to glyceric acid, xylonic acid and citric acid) was “superior effects”.

`CC(O)C(=O)O` (stereo not shown) [lactic acid] was tested, and the “Activity in biofilm assay” value (Candida; targeting vulvovaginal Candida infections) was “moderately active”.
